Calls of active or inactive are those of the source. The calls are words filed in the database; no cut-off is given here.
Key:
T47D [1] = experiment: Antiproliferative activity against human T47D cells assessed as reduction in cell growth incubated for 7 days by celltiter 96 aqueous one solution cell proliferation assay; settings: 168 h
BT-474 = experiment: Antiproliferative activity against human BT-474 cells assessed as reduction in cell growth incubated for 7 days by celltiter 96 aqueous one solution cell proliferation assay; settings: BT-474, 168 h
MCF7 [2] = experiment: Antiproliferative activity against human MCF7 cells with siRNA mediated CARM1 knockdown assessed as reduction in cell growth at 5 uM incubated for 7 days by celltiter 96 aqueous one solution cell proliferation assay; assay type: functional, cell-based; settings: time 7.0 day
MCF7 [3] = experiment: Induction of cell cycle arrest in human MCF7 cells at 2.5 to 10 uM incubated overnight by propidium iodide staining based flow cytometry; assay type: functional; settings: dose 2.5-10 µM
T47D [4] = experiment: Induction of cell cycle arrest in human T47D cells at 2.5 to 10 uM incubated overnight by propidium iodide staining based flow cytometry; assay type: functional; settings: dose 2.5-10 µM
MCF7 [5] = experiment: Antitumor activity against human MCF7 cells xenografted in BALB/C mouse assessed as inhibition of tumor growth at 25 mg/kg,ip administrated every other day for 29 days; assay type: functional, organism-based; settings: time 29.0 day
MCF7 [6] = experiment: Antitumor activity against human MCF7 cells xenografted in BALB/C mouse assessed as reduction of tumor weight at 25 mg/kg,ip administrated every other day for 29 days; assay type: functional, organism-based; settings: time 29.0 day
[7] = Toxicity in BALB/C mouse xenografted with human MCF7 cells assessed as change in heart morphology at 25 mg/kg,ip administrated every other day for 29 days; assay type: organism-based; settings: in vivo, 696 h, time 29 day
[8] = Toxicity in BALB/C mouse xenografted with human MCF7 cells assessed as change in liver morphology at 25 mg/kg,ip administrated every other day for 29 days; assay type: organism-based; settings: in vivo, 696 h, time 29 day
[9] = Toxicity in BALB/C mouse xenografted with human MCF7 cells assessed as change in lung morphology at 25 mg/kg,ip administrated every other day for 29 days; assay type: organism-based; settings: in vivo, 696 h, time 29 day
MCF7 [10] = experiment: Antitumor activity against human MCF7 cells xenografted in BALB/C mouse assessed as downregulation of GREB1 gene expression at 50 mg/kg,ip administrated every other day for 29 days by RT-qPCR analysis; assay type: functional, organism-based; settings: time 29.0 day
MCF7 [11] = experiment: Antitumor activity against human MCF7 cells xenografted in BALB/C mouse assessed as downregulation of FOXC1 gene expression at 25 mg/kg,ip administrated every other day for 29 days by RT-qPCR analysis; assay type: functional, organism-based; settings: time 29.0 day
MCF7 [12] = experiment: Antitumor activity against human MCF7 cells xenografted in BALB/C mouse assessed as upregulation of IFNalpha gene expression at 25 mg/kg,ip administrated every other day for 29 days by RT-qPCR analysis; assay type: functional, organism-based; settings: time 29.0 day
MCF7 [13] = experiment: Antitumor activity against human MCF7 cells xenografted in BALB/C mouse assessed as upregulation of CCL5 gene expression at 50 mg/kg,ip administrated every other day for 29 days by RT-qPCR analysis; assay type: functional, organism-based; settings: time 29.0 day
MCF7 [14] = experiment: Antitumor activity against human MCF7 cells xenografted in BALB/C mouse assessed as upregulation of DDX58 gene expression at 50 mg/kg,ip administrated every other day for 29 days by RT-qPCR analysis; assay type: functional, organism-based; settings: time 29.0 day
HCC1937 = experiment: Antiproliferative activity against human HCC1937 cells assessed as reduction in cell growth incubated for 7 days by celltiter 96 aqueous one solution cell proliferation assay; settings: HCC1937, 168 h
MDA-MB-231 = experiment: Antitumor activity against human MDA-MB-231 cells xenografted in BALB/C mouse assessed as inhibition of tumor growth at 50 mg/kg,ip administrated daily for 11 days; assay type: functional, organism-based; settings: time 11.0 day
[15] = Toxicity in BALB/C mouse xenografted with human MDA-MB-231 cells assessed as change in heart morphology at 50 mg/kg,ip administrated daily for 11 days; assay type: organism-based; settings: in vivo, 264 h, time 11 day
[16] = Toxicity in BALB/C mouse xenografted with human MDA-MB-231 cells assessed as change in spleen morphology at 50 mg/kg,ip administrated daily for 11 days; assay type: organism-based; settings: in vivo, 264 h, time 11 day
4T1 [17] = experiment: Antitumor activity against mouse 4T1 cells implanted in BALB/C mouse assessed as inhibition of tumor weight at 50 mg/kg,ip administrated daily for 14 days; assay type: functional, organism-based; settings: time 14.0 day
[18] = Toxicity in BALB/C mouse implanted with mouse 4T1 cells assessed as change in lung morphology at 50 mg/kg,ip administrated daily for 14 days; assay type: organism-based; settings: in vivo, 336 h, time 14 day
4T1 [19] = experiment: Antitumor activity against mouse 4T1 cells implanted in BALB/C mouse assessed as downregulation of GREB1 gene expression at 50 mg/kg,ip administrated daily for 14 days by RT-qPCR analysis; assay type: functional, organism-based; settings: time 14.0 day
4T1 [20] = experiment: Antitumor activity against mouse 4T1 cells implanted in BALB/C mouse assessed as downregulation of PGR gene expression at 50 mg/kg,ip administrated daily for 14 days by RT-qPCR analysis; assay type: functional, organism-based; settings: time 14.0 day
4T1 [21] = experiment: Antitumor activity against mouse 4T1 cells implanted in BALB/C mouse assessed as upregulation of IFNalpha gene expression at 25 mg/kg,ip administrated daily for 14 days by RT-qPCR analysis; assay type: functional, organism-based; settings: time 14.0 day
4T1 [22] = experiment: Antitumor activity against mouse 4T1 cells implanted in BALB/C mouse assessed as upregulation of ISG15 gene expression at 25 mg/kg,ip administrated daily for 14 days by RT-qPCR analysis; assay type: functional, organism-based; settings: time 14.0 day
MCF7 [23] = experiment: Synergistic antiproliferative activity against human MCF7 cells assessed as inhibition of cell growth at 2.5 uM incubated for 7 days in presence of tamoxifen by celltiter 96 aqueous one solution cell proliferation assay; assay type: functional, cell-based; settings: time 7.0 day
MCF7 [24] = experiment: Synergistic antiproliferative activity against human MCF7 cells assessed as downregulation of CCND1 gene expression at 2.5 uM incubated for 6 hrs in presence of fulvestrant by RT-qPCR analysis; assay type: functional, cell-based
MCF7 [25] = experiment: Synergistic antitumor activity against human MCF7 cells xenografted in BALB/C mouse assessed as reduction in tumor weight at 25 mg/kg,ip administrated every other day for 15 days in presence of 5 mg/kg tamoxifen oral administration; assay type: functional, organism-based; settings: time 15.0 day
[26] = Toxicity in BALB/C mouse xenografted with human MCF7 cells assessed as change in body weight at 25 mg/kg,ip administrated every other day for 15 days in presence of 5 mg/kg tamoxifen oral administration; assay type: organism-based; settings: in vivo, 360 h, time 15 day
MCF7 [27] = experiment: Potentiation of etoposide induced antiproliferative activity against human MCF7 cells assessed as upregulation of DDX58 gene expression at 2.5 uM in presence of etoposide by RT-qPCR analysis; assay type: functional, cell-based
4T1 [28] = experiment: Potentiation of etoposide induced antitumor activity against mouse 4T1 cells implanted in BALB/C mouse assessed as reduction in tumor size at 25 mg/kg,ip administrated daily for 12 days in presence of 8 mg/kg etoposide administration; assay type: functional, organism-based; settings: time 12.0 day
4T1 [29] = experiment: Potentiation of etoposide induced antitumor activity against mouse 4T1 cells implanted in BALB/C mouse assessed as upregulation of ISG15 gene expression at 25 mg/kg,ip administrated daily for 12 days in presence of 8 mg/kg etoposide administration by RT-qPCR analysis; assay type: functional, organism-based; settings: time 12.0 day
4T1 [30] = experiment: Potentiation of etoposide induced antitumor activity against mouse 4T1 cells implanted in BALB/C mouse assessed as upregulation of DDX58 gene expression at 25 mg/kg,ip administrated daily for 12 days in presence of 8 mg/kg etoposide administration by RT-qPCR analysis; assay type: functional, organism-based; settings: time 12.0 day

## Cc1ccc(-c2nc(N3CCN(CCN(C)C)CC3)ncc2-c2ccoc2)cc1.Cl.Cl
T47D [1]
  EC50: 4740 nM
BT-474
  EC50: 2130 nM
MCF7 [2]
  Activity: inactive
MCF7 [3]
  Activity: Active
T47D [4]
  Activity: Active
MCF7 [5]
  Activity: Active
MCF7 [6]
  Activity: Active
[7]
  Activity: Non-Toxic
[8]
  Activity: Non-Toxic
[9]
  Activity: Non-Toxic
MCF7 [10]
  Activity: Active
MCF7 [11]
  Activity: Active
MCF7 [12]
  Activity: Active
MCF7 [13]
  Activity: Active
MCF7 [14]
  Activity: Active
HCC1937
  EC50: 1970 nM
MDA-MB-231
  Activity: Active
[15]
  Activity: Non-Toxic
[16]
  Activity: Non-Toxic
4T1 [17]
  Activity: Active
[18]
  Activity: Non-Toxic
4T1 [19]
  Activity: Active
4T1 [20]
  Activity: Active
4T1 [21]
  Activity: Active
4T1 [22]
  Activity: Active
MCF7 [23]
  Activity: Active
MCF7 [24]
  Activity: Active
MCF7 [25]
  Activity: Active
[26]
  Activity: Non-Toxic
MCF7 [27]
  Activity: Active
4T1 [28]
  Activity: Active
4T1 [29]
  Activity: Active
4T1 [30]
  Activity: Active
